{
  "source": "patent US20100041089A1",
  "about": "“IMPROVED METHOD FOR DETECTING CHEMICAL […]” (priority 2006, published 2010)",
  "system": "yeast genes (expressed mRNA)",
  "test": "DNA chip measurement of expressed mRNA of yeast genes after culture with a toxic chemical substance",
  "assay_type": "cell-based, Saccharomyces cerevisiae S288C",
  "summary_of_the_method": "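Yeast S288C, YPD 25° C; toxicant at log phase, 2 h, sublethal growth-inhibiting conc.; no-chemical control. Hot SDS/acetate RNA extraction, oligo-dT mRNA, Cy3/Cy5-dUTP RT. Whole-genome chip, 65° C >12 h. Readout: treated/control intensity ratio, ≥2 significant.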",
  "data": [
    {"compound": "CN(C)C(=S)SSC(=S)N(C)C", "note": "[(10), Tetramethylthiuram disulfide]", "values": [
      {"measurement": "The level of expressed mRNA in the presence of chemical substance/The level of expressed mRNA in the absence of chemical substance", "setting": "yeast gene YNL077W", "value": 5.1},
      {"measurement": "The level of expressed mRNA in the presence of chemical substance/The level of expressed mRNA in the absence of chemical substance", "setting": "yeast gene YNL092W, cultured two hours with substance", "value": 1.5},
      {"measurement": "The level of expressed mRNA in the presence of chemical substance/The level of expressed mRNA in the absence of chemical substance", "setting": "yeast gene YNL115C, cultured two hours with substance", "value": 1.9},
      {"measurement": "The level of expressed mRNA in the presence of chemical substance/The level of expressed mRNA in the absence of chemical substance", "setting": "yeast gene YNL156C, cultured two hours with substance", "value": 1.9},
      {"measurement": "The level of expressed mRNA in the presence of chemical substance/The level of expressed mRNA in the absence of chemical substance", "setting": "yeast gene YNL190W, cultured two hours with substance", "value": 1.1},
      {"measurement": "The level of expressed mRNA in the presence of chemical substance/The level of expressed mRNA in the absence of chemical substance", "setting": "yeast gene YNL195C, cultured two hours with the chemical substance", "value": 11.7},
      {"measurement": "The level of expressed mRNA in the presence of chemical substance/The level of expressed mRNA in the absence of chemical substance", "setting": "yeast gene YNL208W, cultured two hours with substance", "value": 3.1},
      {"measurement": "The level of expressed mRNA in the presence of chemical substance/The level of expressed mRNA in the absence of chemical substance", "setting": "yeast gene YNL234W, cultured two hours with substance", "value": 3.3},
      {"measurement": "The level of expressed mRNA in the presence of chemical substance/The level of expressed mRNA in the absence of chemical substance", "setting": "yeast gene YNL277W", "value": 10.9},
      {"measurement": "The level of expressed mRNA in the presence of chemical substance/The level of expressed mRNA in the absence of chemical substance", "setting": "yeast gene YNL281W, cultured two hours with substance", "value": 1.6},
      {"measurement": "The level of expressed mRNA in the presence of chemical substance/The level of expressed mRNA in the absence of chemical substance", "setting": "yeast gene YNL300W, cultured two hours with substance", "value": 0.2},
      {"measurement": "The level of expressed mRNA in the presence of chemical substance/The level of expressed mRNA in the absence of chemical substance", "setting": "yeast gene YNL305C, cultured two hours with substance", "value": 2.1},
      {"measurement": "The level of expressed mRNA in the presence of chemical substance/The level of expressed mRNA in the absence of chemical substance", "setting": "yeast gene YNL331C", "value": 36.3},
      {"measurement": "The level of expressed mRNA in the presence of chemical substance/The level of expressed mRNA in the absence of chemical substance", "setting": "yeast gene YNL331C, cultured for two hours with substance", "value": 36.3},
      {"measurement": "The level of expressed mRNA in the presence of chemical substance/The level of expressed mRNA in the absence of chemical substance", "setting": "yeast gene YNR064C, cultured two hours with substance", "value": 2.1},
      {"measurement": "The level of expressed mRNA in the presence of chemical substance/The level of expressed mRNA in the absence of chemical substance", "setting": "yeast gene YNR068C, cultured two hours with substance", "value": 14.4},
      {"measurement": "The level of expressed mRNA in the presence of chemical substance/The level of expressed mRNA in the absence of chemical substance", "setting": "yeast gene YNR073C", "value": 16.8},
      {"measurement": "The level of expressed mRNA in the presence of chemical substance/The level of expressed mRNA in the absence of chemical substance", "setting": "yeast gene YOL002C, cultured two hours with the substance", "value": 0.3},
      {"measurement": "The level of expressed mRNA in the presence of chemical substance/The level of expressed mRNA in the absence of chemical substance", "setting": "yeast gene YOL032W, cultured two hours with substance", "value": 3.0},
      {"measurement": "The level of expressed mRNA in the presence of chemical substance/The level of expressed mRNA in the absence of chemical substance", "setting": "yeast gene YOL036W, cultured two hours with substance", "value": 2.8},
      {"measurement": "The level of expressed mRNA in the presence of chemical substance/The level of expressed mRNA in the absence of chemical substance", "setting": "yeast gene YOL047C, cultured two hours with substance", "value": 2.3},
      {"measurement": "The level of expressed mRNA in the presence of chemical substance/The level of expressed mRNA in the absence of chemical substance", "setting": "yeast gene YOL058W", "value": 15.7},
      {"measurement": "The level of expressed mRNA in the presence of chemical substance/The level of expressed mRNA in the absence of chemical substance", "setting": "yeast gene YOL071W, cultured two hours with substance", "value": 2.3},
      {"measurement": "The level of expressed mRNA in the presence of chemical substance/The level of expressed mRNA in the absence of chemical substance", "setting": "yeast gene YOL082W, cultured two hours with substance", "value": 2.0},
      {"measurement": "The level of expressed mRNA in the presence of chemical substance/The level of expressed mRNA in the absence of chemical substance", "setting": "yeast gene YOL083W, cultured two hours with substance", "value": 2.3},
      {"measurement": "The level of expressed mRNA in the presence of chemical substance/The level of expressed mRNA in the absence of chemical substance", "setting": "yeast gene YOL101C, cultured two hours with substance", "value": 0.3},
      {"measurement": "The level of expressed mRNA in the presence of chemical substance/The level of expressed mRNA in the absence of chemical substance", "setting": "yeast gene YOL117W, cultured two hours with substance", "value": 4.1},
      {"measurement": "The level of expressed mRNA in the presence of chemical substance/The level of expressed mRNA in the absence of chemical substance", "setting": "yeast gene YOL131W, cultured two hours with substance", "value": 8.1},
      {"measurement": "The level of expressed mRNA in the presence of chemical substance/The level of expressed mRNA in the absence of chemical substance", "setting": "yeast gene YOL150C, cultured two hours with substance", "value": 8.3},
      {"measurement": "The level of expressed mRNA in the presence of chemical substance/The level of expressed mRNA in the absence of chemical substance", "setting": "yeast gene YOL162W, cultured two hours with substance", "value": 6.8},
      {"measurement": "The level of expressed mRNA in the presence of chemical substance/The level of expressed mRNA in the absence of chemical substance", "setting": "yeast gene YOL163W (transport facilitation protein gene)", "value": 6.2},
      {"measurement": "The level of expressed mRNA in the presence of chemical substance/The level of expressed mRNA in the absence of chemical substance", "setting": "yeast gene YOL165C", "value": 23.3},
      {"measurement": "The level of expressed mRNA in the presence of chemical substance/The level of expressed mRNA in the absence of chemical substance", "setting": "yeast gene YOL165C, cultured for two hours with substance", "value": 23.3},
      {"measurement": "The level of expressed mRNA in the presence of chemical substance/The level of expressed mRNA in the absence of chemical substance", "setting": "yeast gene YOR019W, cultured two hours with substance", "value": 7.1},
      {"measurement": "The level of expressed mRNA in the presence of chemical substance/The level of expressed mRNA in the absence of chemical substance", "setting": "yeast gene YOR197W, cultured two hours with substance", "value": 0.7},
      {"measurement": "The level of expressed mRNA in the presence of chemical substance/The level of expressed mRNA in the absence of chemical substance", "setting": "yeast gene YOR248W, cultured two hours with substance", "value": 0.4},
      {"measurement": "The level of expressed mRNA in the presence of chemical substance/The level of expressed mRNA in the absence of chemical substance", "setting": "yeast gene YOR382W, cultured two hours with substance", "value": 12.8},
      {"measurement": "The level of expressed mRNA in the presence of chemical substance/The level of expressed mRNA in the absence of chemical substance", "setting": "yeast gene YOR383C", "value": 4.5},
      {"measurement": "The level of expressed mRNA in the presence of chemical substance/The level of expressed mRNA in the absence of chemical substance", "setting": "yeast gene YOR391C, cultured two hours with substance", "value": 18.1},
      {"measurement": "The level of expressed mRNA in the presence of chemical substance/The level of expressed mRNA in the absence of chemical substance", "setting": "yeast gene YPL017C, metabolism protein genes", "value": 6.7},
      {"measurement": "The level of expressed mRNA in the presence of chemical substance/The level of expressed mRNA in the absence of chemical substance", "setting": "yeast gene YPL052W, cultured two hours with substance", "value": 4.8},
      {"measurement": "The level of expressed mRNA in the presence of chemical substance/The level of expressed mRNA in the absence of chemical substance", "setting": "yeast gene YPL087W, cultured two hours with substance", "value": 2.2},
      {"measurement": "The level of expressed mRNA in the presence of chemical substance/The level of expressed mRNA in the absence of chemical substance", "setting": "yeast gene YPL171C, cultured for two hours with substance", "value": 50.6},
      {"measurement": "The level of expressed mRNA in the presence of chemical substance/The level of expressed mRNA in the absence of chemical substance", "setting": "yeast gene YPL196W, cultured two hours with substance", "value": 2.8},
      {"measurement": "The level of expressed mRNA in the presence of chemical substance/The level of expressed mRNA in the absence of chemical substance", "setting": "yeast gene YPL206C, cultured two hours with substance", "value": 1.1},
      {"measurement": "The level of expressed mRNA in the presence of chemical substance/The level of expressed mRNA in the absence of chemical substance", "setting": "yeast gene YPL222W, cultured two hours with substance", "value": 3.4},
      {"measurement": "The level of expressed mRNA in the presence of chemical substance/The level of expressed mRNA in the absence of chemical substance", "setting": "yeast gene YPL223C (stress protein genes)", "value": 16.5},
      {"measurement": "The level of expressed mRNA in the presence of chemical substance/The level of expressed mRNA in the absence of chemical substance", "setting": "yeast gene YPR023C, cultured two hours with substance", "value": 2.8},
      {"measurement": "The level of expressed mRNA in the presence of chemical substance/The level of expressed mRNA in the absence of chemical substance", "setting": "yeast gene YPR079W, cultured two hours with substance", "value": 2.8},
      {"measurement": "The level of expressed mRNA in the presence of chemical substance/The level of expressed mRNA in the absence of chemical substance", "setting": "yeast gene YPR151C, cultured two hours with substance", "value": 9.5}
    ]}
  ]
}
